According to ChEMBL document CHEMBL3877294, “Discovery of Ruzasvir (MK-8408): A Potent, Pan-Genotype HCV NS5A Inhibitor with Optimized Activity against Common Resistance-Associated Polymorphisms” (J Med Chem, 2017):

What was measured:
[1] = system: Huh-7; assay: Inhibition of HCV genotype-1a NS5A infected in human HuH7 cells by luciferase reporter gene assay; assay type: cell-based; details: Hepatitis C virus subtype 1a
[2] = system: T1, Nonstructural protein 5A (Hepatitis C virus), Q5L478 [Y93H]; assay: Inhibition of HCV genotype-1a NS5A Y93H mutant infected in human HuH7 cells by luciferase reporter gene assay; assay type: cell-based; details: Hepatitis C virus subtype 1a; Huh-7
T1 sequence (whole entry): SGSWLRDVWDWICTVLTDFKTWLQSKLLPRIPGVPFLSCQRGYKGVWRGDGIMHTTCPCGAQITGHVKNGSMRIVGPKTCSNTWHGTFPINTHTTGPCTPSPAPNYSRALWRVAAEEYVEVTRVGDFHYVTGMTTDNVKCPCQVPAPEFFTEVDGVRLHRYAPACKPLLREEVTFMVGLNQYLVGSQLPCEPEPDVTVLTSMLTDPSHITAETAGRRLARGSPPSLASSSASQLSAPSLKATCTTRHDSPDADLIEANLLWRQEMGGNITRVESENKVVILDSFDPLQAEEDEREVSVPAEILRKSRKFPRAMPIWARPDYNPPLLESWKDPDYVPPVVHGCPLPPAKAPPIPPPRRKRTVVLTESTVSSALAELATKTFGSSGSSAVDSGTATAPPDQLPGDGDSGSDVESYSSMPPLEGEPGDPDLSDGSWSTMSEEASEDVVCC

[3] = system: Huh-7; assay: Inhibition of HCV genotype-2b NS5A harboring methionine at position 31 infected in human HuH7 cells by luciferase reporter gene assay; assay type: cell-based; details: Hepatitis C virus subtype 2b
[4] = system: Hepatitis C virus subtype 1a; assay: Selectivity ratio for EC90 for HCV genotype-1a NS5A Y93H mutant to EC90 for HCV genotype-1a NS5A
[5] = Selectivity ratio for EC90 for HCV genotype-2b NS5A harboring methionine at position 31 to EC90 for HCV genotype-1a NS5A
[6] = system: Nonstructural protein 5A (Hepatitis C virus), Q5L478 [UNDEFINED MUTATION]; assay: Inhibition of HCV genotype-1a NS5A L31V mutant infected in human HuH7 cells by luciferase reporter gene assay; assay type: cell-based; details: Hepatitis C virus subtype 1a; Huh-7
[7] = system: Huh-7; assay: Inhibition of HCV genotype-3a NS5A infected in human HuH7 cells by luciferase reporter gene assay; assay type: cell-based; details: Hepatitis C virus subtype 3a
[8] = system: Huh-7; assay: Inhibition of HCV genotype-4a NS5A infected in human HuH7 cells by luciferase reporter gene assay; assay type: cell-based; details: Hepatitis C virus subtype 4a

Row | SMILES | EC90 [1] | EC90 [2] | EC90 [3] | Selectivity ratio [4] | Selectivity ratio [5] | EC90 [6] | EC90 [7] | EC90 [8]
1 | COC(=O)N[C@H](C(=O)N1CCC[C@H]1c1ncc(-c2ccc3c(c2)OC(c2ccc(C4CC4)s2)n2c-3cc3cc(-c4cnc([C@@H]5CCCN5C(=O)[C@@H](NC(=O)OC)C(C)C)[nH]4)ccc32)[nH]1)C(C)C (stereo partly specified) | 0.003 nM | 1.2 nM | 0.35 nM | 400 | 117 |  |  | 
2 | COC(=O)N[C@H](C(=O)N1CCC[C@H]1c1ncc(-c2cc(F)c3c(c2)OC(c2ccc(C(F)F)s2)n2c-3cc3cc(-c4cnc([C@@H]5CCCN5C(=O)[C@@H](NC(=O)OC)C(C)C)[nH]4)ccc32)[nH]1)C(C)C (stereo partly specified) | 0.002 nM | 0.14 nM | 0.26 nM |  |  | 0.016 nM | 0.007 nM | 0.005 nM
3 | CCOc1cccc([C@@H]2Oc3cc(-c4cnc([C@@H]5CCCN5C(=O)[C@@H](NC(=O)OC)C(C)C)[nH]4)cc(F)c3-c3cc4cc(-c5cnc([C@@H]6CCCN6C(=O)[C@@H](NC(=O)OC)C(C)C)[nH]5)ccc4n32)c1 | 0.01 nM | 2 nM | 8 nM | 200 | 800 |  |  | 
4 | COC(=O)N[C@H](C(=O)N1CCC[C@H]1c1ncc(-c2ccc3c(c2)OC(c2ccc(Cl)s2)n2c-3cc3cc(-c4cnc([C@@H]5CCCN5C(=O)[C@@H](NC(=O)OC)C(C)C)[nH]4)ccc32)[nH]1)C(C)C (mixture of isomers) | 0.02 nM | 4 nM | 1 nM | 200 | 50 |  |  | 
5 | COC(=O)N[C@H](C(=O)N1CCC[C@H]1c1ncc(-c2cc(F)c3c(c2)OC(c2cnc(CC(F)(F)F)s2)n2c-3cc3cc(-c4cnc([C@@H]5CCCN5C(=O)[C@@H](NC(=O)OC)C(C)C)[nH]4)ccc32)[nH]1)C(C)C (stereo partly specified) | 0.005 nM | 0.18 nM | 0.22 nM |  |  | 0.05 nM | 0.015 nM | 0.013 nM
6 | COC(=O)N[C@H](C(=O)N1CCC[C@H]1c1ncc(-c2ccc3c(c2)O[C@@H](c2ccc(C4CC4)cc2)n2c-3cc3cc(-c4cnc([C@@H]5CCCN5C(=O)[C@@H](NC(=O)OC)C(C)C)[nH]4)ccc32)[nH]1)C(C)C | 0.004 nM | 8 nM | 1 nM | 1900 | 300 |  |  | 
7 | CCc1ncc(C2Oc3cc(-c4cnc([C@@H]5CCCN5C(=O)[C@@H](NC(=O)OC)C(C)C)[nH]4)cc(F)c3-c3cc4cc(-c5cnc([C@@H]6CCCN6C(=O)[C@@H](NC(=O)OC)C(C)C)[nH]5)ccc4n32)s1 (stereo partly specified) | 0.004 nM | 0.14 nM | 0.097 nM |  |  | 0.048 nM | 0.009 nM | 0.011 nM
8 | COC(=O)N[C@H](C(=O)N1CCC[C@H]1c1ncc(-c2cc(F)c3c(c2)OC(c2ccc(C#N)s2)n2c-3cc3cc(-c4cnc([C@@H]5CCCN5C(=O)[C@@H](NC(=O)OC)C(C)C)[nH]4)ccc32)[nH]1)C(C)C (stereo partly specified) | < 0.002 nM | 2.38 nM | 3.4 nM |  |  | 0.087 nM | 0.013 nM | 0.004 nM
9 | COC(=O)N[C@H](C(=O)N1CCC[C@H]1c1ncc(-c2cc(F)c3c(c2)OC(c2cnns2)n2c-3cc3cc(-c4cnc([C@@H]5CCCN5C(=O)[C@@H](NC(=O)OC)C(C)C)[nH]4)ccc32)[nH]1)C(C)C (stereo partly specified) | 0.003 nM | 0.36 nM | 0.72 nM |  |  | 0.14 nM | 0.047 nM | 0.012 nM
10 | CCOc1cccc([C@@H]2Oc3cc(-c4cnc([C@@H]5CCCN5C(=O)[C@@H](NC(=O)OC)C(C)C)[nH]4)ccc3-c3cc4cc(-c5cnc([C@@H]6CCCN6C(=O)[C@@H](NC(=O)OC)C(C)C)[nH]5)ccc4n32)c1 | 0.02 nM | 16 nM | 22 nM | 800 | 1100 |  |  | 
11 | COCc1ccc(C2Oc3cc(-c4cnc([C@@H]5CCCN5C(=O)[C@@H](NC(=O)OC)C(C)C)[nH]4)cc(F)c3-c3cc4cc(-c5cnc([C@@H]6CCCN6C(=O)[C@@H](NC(=O)OC)C(C)C)[nH]5)ccc4n32)s1 (stereo partly specified) | 0.005 nM | 0.22 nM | 0.54 nM |  |  | 0.049 nM | 0.016 nM | 0.009 nM
